Data on 26 compounds can be found in ChEMBL document CHEMBL1148457, “Comparative molecular active site analysis (CoMASA). 1. An approach to rapid evaluation of 3D QSAR” (J Med Chem, 2004).

pKi: −log10 of the molar value.

The target of this test is T1, Corticosteroid-binding globulin (Homo sapiens, UniProt P08185).
T1 sequence (P08185 whole entry): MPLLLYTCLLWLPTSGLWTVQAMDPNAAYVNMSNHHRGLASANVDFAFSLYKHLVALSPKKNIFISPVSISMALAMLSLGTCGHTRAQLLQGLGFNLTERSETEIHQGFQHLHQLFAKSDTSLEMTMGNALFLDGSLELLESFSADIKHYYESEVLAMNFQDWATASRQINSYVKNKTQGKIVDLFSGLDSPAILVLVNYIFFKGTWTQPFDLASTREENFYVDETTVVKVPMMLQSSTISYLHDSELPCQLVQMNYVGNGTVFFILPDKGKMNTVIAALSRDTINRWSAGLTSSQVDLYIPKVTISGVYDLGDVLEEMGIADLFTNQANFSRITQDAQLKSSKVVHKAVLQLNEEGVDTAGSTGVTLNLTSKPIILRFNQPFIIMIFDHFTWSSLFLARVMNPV
Nature of the test: Binding affinity to human CBG receptor (corticosteroid-binding globulins).
A word on the pKi: it is −log10 of the Ki, conventionally taken in molar units. A low value points to a high Ki. In the case of `C[C@]12CC[C@@H]3c4ccc(O)cc4CC[C@H]3[C@@H]1C[C@@H](O)[C@@H]2O` [ESTRIOL], the pKi was 5.00.

Consider `C[C@]12CCC(=O)C=C1CCC1[C@@H]2C(=O)C[C@@]2(C)[C@H]1CC[C@]2(O)C(=O)CO` (single isomer, unassigned) [CORTISONE], for which the negative-log Ki (pKi) was 6.89.

Regarding `CC(=O)[C@@]1(O)CC[C@H]2[C@@H]3CCC4=CC(=O)CC[C@]4(C)[C@H]3CC[C@@]21C` [HYDROXYPROGESTERONE], the pKi is 7.74.

Take `C[C@]12CC[C@H]3[C@@H](CCC4=CC(=O)CC[C@@]43C)[C@@H]1CC[C@@H]2O` [TESTOSTERONE]: the pKi is 6.72.

Take `C[C@]12CC[C@@H]3c4ccc(O)cc4CC[C@H]3[C@@H]1CC[C@@H]2O` [ESTRADIOL]: the pKi is 5.00.

`CC(=O)[C@H]1CC[C@H]2[C@@H]3CCC4=CC(=O)CC[C@@H]4[C@H]3CC[C@]12C` gave a pKi of 6.82.

In turn, `C[C@@H]1C[C@@]2(C)C(=CC1=O)CC[C@H]1[C@@H]3CC[C@](O)(C(=O)CO)[C@@]3(C)C[C@H](O)[C@@]12F` showed a pKi of 5.80.

`C[C@]12CCC(=O)C=C1CC[C@@H]1[C@@H]2CC[C@@]2(C)[C@H]1CC[C@]2(O)C(=O)CO` [CORTODOXONE]: the pKi is 7.88.

`C[C@]12C[C@H](O)[C@H]3[C@@H](CCC4=CC(=O)CC[C@@]43C)[C@@H]1CC[C@@H]2C(=O)CO` (stereo in doubt; form 2) [CORTICOSTERONE] had a pKi of 7.88.

In turn, `C[C@]12CC[C@H](O)CC1=CC[C@@H]1[C@@H]2CC[C@]2(C)C(=O)CC[C@@H]12` [PRASTERONE] had a pKi of 5.00.

As for `C[C@]12CC[C@@H]3c4ccc(O)cc4CC[C@H]3[C@@H]1CCC2=O` [ESTRONE], the pKi is 5.00.

`C[C@]12CCC(=O)C=C1CC[C@@H]1[C@@H]2CC[C@]2(C)C(=O)CC[C@@H]12` [ANDROSTENEDIONE] showed a pKi of 5.76.

In the case of `C[C@]12CC[C@H]3[C@@H](CCC4=CC(=O)CC[C@@H]43)[C@@H]1CC[C@@H]2O` [NANDROLONE], the pKi is 6.14.

`CC(=O)[C@@]1(O)[C@H](O)C[C@H]2[C@@H]3CCC4=CC(=O)CC[C@]4(C)[C@H]3CC[C@@]21C` gave a pKi of 6.25.

Compound `C[C@]12C=CC(=O)C=C1CCC1[C@@H]2[C@@H](O)C[C@@]2(C)[C@H]1CC[C@]2(O)C(=O)CO` (single isomer, unassigned) [PREDNISOLONE] showed a pKi of 7.51.

In turn, `CC(=O)[C@H]1CC[C@H]2[C@@H]3CC=C4C[C@@H](O)CC[C@]4(C)[C@H]3CC[C@]12C` [PREGNENOLONE] showed a pKi of 5.23.

Turning to `CC(=O)[C@@]1(O)CC[C@H]2[C@@H]3CC[C@@H]4C[C@H](O)CC[C@]4(C)[C@H]3CC[C@@]21C` [HYDROXYPREGNENOLONE], the pKi was 5.00.

`CC(=O)[C@H]1CC[C@H]2[C@@H]3CCC4=CC(=O)CC[C@]4(C)[C@H]3CC[C@]12C` [PROGESTERONE] showed a pKi of 7.38.

As for `CC(=O)C1CCC2C3C[C@H](C)C4=CC(=O)CCC4(C)C3CCC12C` (stereo partly specified), the pKi was 7.12.

Compound `C[C@]12CCC(=O)C=C1CC[C@@H]1[C@@H]2[C@@H](O)C[C@]2(C=O)[C@@H](C(=O)CO)CC[C@@H]12` [ALDOSTERONE] gave a pKi of 6.28.

`CC(=O)[C@H]1CC[C@H]2[C@@H]3CCC4=CC(=O)CC[C@]4(C)[C@H]3C(=O)C[C@]12C`: the pKi is 6.78.

In the case of `C[C@]12CC[C@H]3[C@@H](CCC4=CC(=O)CC[C@@]43C)[C@@H]1CC[C@@H]2C(=O)CO` [DESOXYCORTICOSTERONE], the pKi was 7.65.

With `CC(=O)OCC(=O)[C@@]1(O)CC[C@H]2[C@@H]3CCC4=CC(=O)CC[C@]4(C)[C@H]3[C@@H](O)C[C@@]21C` [HYDROCORTISONE ACETATE], the pKi was 7.55.

`C[C@]12C[C@H](O)[C@H]3[C@@H](CCC4=CC(=O)CC[C@@]43C)[C@@H]1CC[C@@H]2C(=O)CO` (stereo in doubt; form 1) [CORTICOSTERONE] gave a pKi of 7.20.

Compound `C[C@]12CC[C@H](O)C[C@@H]1CC[C@@H]1[C@@H]2CC[C@]2(C)[C@@H](O)CC[C@@H]12` [ANDROSTANEDIOL] had a pKi of 5.00.

The compound `CC1C[C@@]2(C)C(=CC1=O)CC[C@@H]1[C@@H]2C(=O)C[C@@]2(C)[C@H]1CC[C@]2(O)C(=O)CO` (stereo partly specified) gave a pKi of 7.69.
